Laboratory results as given in ChEMBL document CHEMBL4359837, “Discovery of 2-(4-Chloro-3-(trifluoromethyl)phenyl)-N-(4-((6,7-dimethoxyquinolin-4-yl)oxy)phenyl)acetamide (CHMFL-KIT-64) as a Novel Orally Available Potent Inhibitor against Broad-Spectrum Mutants of c-KIT Kinase for Gastrointestinal Stromal Tumors” (J Med Chem, 2019).
Calls of active or inactive are those of the source. The rule behind the calls is not given here.

Assays:
[1] = system: Mast/stem cell growth factor receptor Kit (Homo sapiens), P10721 [T670I]; conditions: Mus musculus
Sequence of Mast/stem cell growth factor receptor Kit (Homo sapiens), P10721 [T670I] (P10721 whole entry T670I): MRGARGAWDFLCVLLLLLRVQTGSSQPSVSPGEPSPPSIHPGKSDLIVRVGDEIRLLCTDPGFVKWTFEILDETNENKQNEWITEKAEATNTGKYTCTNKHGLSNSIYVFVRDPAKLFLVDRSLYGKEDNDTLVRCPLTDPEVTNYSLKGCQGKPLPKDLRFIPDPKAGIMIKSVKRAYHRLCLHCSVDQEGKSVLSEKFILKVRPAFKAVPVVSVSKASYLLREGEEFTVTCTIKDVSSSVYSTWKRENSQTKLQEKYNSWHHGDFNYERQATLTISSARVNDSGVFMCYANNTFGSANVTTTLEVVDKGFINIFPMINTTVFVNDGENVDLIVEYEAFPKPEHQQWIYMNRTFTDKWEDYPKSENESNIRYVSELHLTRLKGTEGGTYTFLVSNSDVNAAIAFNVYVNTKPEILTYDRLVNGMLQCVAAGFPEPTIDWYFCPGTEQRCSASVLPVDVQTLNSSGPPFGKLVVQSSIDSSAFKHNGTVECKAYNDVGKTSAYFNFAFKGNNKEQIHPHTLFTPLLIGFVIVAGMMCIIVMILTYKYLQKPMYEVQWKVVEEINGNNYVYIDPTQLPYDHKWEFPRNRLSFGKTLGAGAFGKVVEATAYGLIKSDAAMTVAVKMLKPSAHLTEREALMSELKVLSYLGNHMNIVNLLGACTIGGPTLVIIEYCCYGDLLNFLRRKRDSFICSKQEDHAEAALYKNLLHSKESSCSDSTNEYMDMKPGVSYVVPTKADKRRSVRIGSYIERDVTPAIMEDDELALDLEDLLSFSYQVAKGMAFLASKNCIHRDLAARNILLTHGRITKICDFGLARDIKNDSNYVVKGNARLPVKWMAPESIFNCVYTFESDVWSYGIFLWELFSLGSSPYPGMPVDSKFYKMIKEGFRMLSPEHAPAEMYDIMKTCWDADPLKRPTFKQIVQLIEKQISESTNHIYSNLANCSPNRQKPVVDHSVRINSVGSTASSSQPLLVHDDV
Description: Inhibition of c-KIT T670I mutant in mouse BAF3(transformed) cells assessed as growth inhibition after 72 hrs by CCK8 assay

[2] = Growth inhibition of mouse BAF3 cells measured after 72 hrs by CCK8 assay; type: cell-based
[3] = molecular target: Mast/stem cell growth factor receptor Kit (Mus musculus) (UniProt P05532); experiment: Inhibition of c-KIT in mouse BAF3(transformed) cells assessed as growth inhibition after 72 hrs by CCK8 assay
Sequence of Mast/stem cell growth factor receptor Kit (Mus musculus) (P05532 whole entry): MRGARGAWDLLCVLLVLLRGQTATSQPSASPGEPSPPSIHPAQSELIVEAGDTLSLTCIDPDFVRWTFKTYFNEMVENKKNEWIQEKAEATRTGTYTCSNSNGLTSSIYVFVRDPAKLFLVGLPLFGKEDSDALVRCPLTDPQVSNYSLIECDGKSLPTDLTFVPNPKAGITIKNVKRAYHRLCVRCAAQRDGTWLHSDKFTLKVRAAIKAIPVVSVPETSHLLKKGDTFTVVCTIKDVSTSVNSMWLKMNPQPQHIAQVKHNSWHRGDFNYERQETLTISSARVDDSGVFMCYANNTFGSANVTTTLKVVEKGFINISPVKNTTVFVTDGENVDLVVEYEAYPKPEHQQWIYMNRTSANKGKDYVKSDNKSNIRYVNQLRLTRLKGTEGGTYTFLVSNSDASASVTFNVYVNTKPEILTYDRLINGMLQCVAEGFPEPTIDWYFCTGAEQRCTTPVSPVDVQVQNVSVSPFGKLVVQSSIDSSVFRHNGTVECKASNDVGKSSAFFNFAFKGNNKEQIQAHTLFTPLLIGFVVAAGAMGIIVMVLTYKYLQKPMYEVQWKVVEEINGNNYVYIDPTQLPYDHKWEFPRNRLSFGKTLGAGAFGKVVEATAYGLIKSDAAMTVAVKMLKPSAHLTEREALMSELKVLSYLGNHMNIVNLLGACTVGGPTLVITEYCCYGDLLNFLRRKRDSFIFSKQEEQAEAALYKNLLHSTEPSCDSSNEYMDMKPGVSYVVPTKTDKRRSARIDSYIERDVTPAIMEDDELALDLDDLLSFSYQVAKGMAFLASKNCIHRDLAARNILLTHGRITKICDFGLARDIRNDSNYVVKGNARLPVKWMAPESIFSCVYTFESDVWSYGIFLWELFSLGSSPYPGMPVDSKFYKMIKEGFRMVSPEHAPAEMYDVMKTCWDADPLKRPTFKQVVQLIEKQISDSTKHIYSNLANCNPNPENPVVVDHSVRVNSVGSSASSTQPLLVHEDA

[4] = molecular target: T1, Platelet-derived growth factor receptor alpha (Homo sapiens, UniProt P16234); type: cell-based; conditions: GISTT1
T1 sequence (P16234 whole entry): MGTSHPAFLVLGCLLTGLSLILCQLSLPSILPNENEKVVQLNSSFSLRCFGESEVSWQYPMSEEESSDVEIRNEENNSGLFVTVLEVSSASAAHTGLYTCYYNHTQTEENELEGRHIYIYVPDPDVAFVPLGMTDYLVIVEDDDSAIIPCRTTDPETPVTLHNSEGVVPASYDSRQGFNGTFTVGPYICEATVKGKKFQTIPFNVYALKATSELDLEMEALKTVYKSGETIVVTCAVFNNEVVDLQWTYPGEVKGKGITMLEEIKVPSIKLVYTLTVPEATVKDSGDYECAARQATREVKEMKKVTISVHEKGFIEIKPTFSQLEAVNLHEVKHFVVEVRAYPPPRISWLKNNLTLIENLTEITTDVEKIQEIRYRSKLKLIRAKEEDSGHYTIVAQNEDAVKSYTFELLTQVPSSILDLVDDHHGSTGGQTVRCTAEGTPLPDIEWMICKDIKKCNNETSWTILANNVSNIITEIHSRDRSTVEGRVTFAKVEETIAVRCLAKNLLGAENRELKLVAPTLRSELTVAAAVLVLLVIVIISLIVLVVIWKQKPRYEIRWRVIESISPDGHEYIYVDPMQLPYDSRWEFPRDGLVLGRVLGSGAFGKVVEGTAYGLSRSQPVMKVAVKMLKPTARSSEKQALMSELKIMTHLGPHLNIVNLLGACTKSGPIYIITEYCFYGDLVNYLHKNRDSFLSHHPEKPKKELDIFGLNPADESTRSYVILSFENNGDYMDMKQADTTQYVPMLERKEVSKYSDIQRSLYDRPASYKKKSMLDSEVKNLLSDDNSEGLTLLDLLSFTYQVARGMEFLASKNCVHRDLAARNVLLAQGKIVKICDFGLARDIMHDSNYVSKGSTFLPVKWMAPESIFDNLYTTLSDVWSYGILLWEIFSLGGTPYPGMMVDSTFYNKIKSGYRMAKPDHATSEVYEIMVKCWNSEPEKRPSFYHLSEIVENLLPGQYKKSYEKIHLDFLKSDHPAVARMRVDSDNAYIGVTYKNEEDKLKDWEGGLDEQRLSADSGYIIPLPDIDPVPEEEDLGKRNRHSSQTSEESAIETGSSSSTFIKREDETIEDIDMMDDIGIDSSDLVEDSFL

[5] = molecular target: T1, Platelet-derived growth factor receptor alpha; type: cell-based; conditions: GISTT1; remark: listed apart in the source
GISTT1 [6] = type: functional, cell-based; conditions: Homo sapiens
[7] = molecular target: T1, Platelet-derived growth factor receptor alpha; type: cell-based; conditions: GISTT1; remark: listed apart in the source
[8] = molecular target: T1, Platelet-derived growth factor receptor alpha; type: cell-based; conditions: GISTT1; remark: listed apart in the source
[9] = molecular target: T1, Platelet-derived growth factor receptor alpha; type: cell-based; conditions: GISTT1; remark: listed apart in the source
[10] = molecular target: T1, Platelet-derived growth factor receptor alpha; type: cell-based; conditions: GISTT1; remark: listed apart in the source
[11] = molecular target: T1, Platelet-derived growth factor receptor alpha; type: cell-based; conditions: GISTT1; remark: listed apart in the source
Mus musculus [12] = species: Mus musculus; experiment: Inhibition of c-KIT V654A/V559D double mutant in mouse BAF3(transformed) cells assessed as growth inhibition after 72 hrs by CCK8 assay
[13] = system: Mast/stem cell growth factor receptor Kit (Homo sapiens), P10721 [K642E]
Sequence of Mast/stem cell growth factor receptor Kit (Homo sapiens), P10721 [K642E] (P10721 whole entry K642E): as the sequence (P10721 whole entry T670I) above, with K642E, I670T counted along it

Mus musculus [14] = species: Mus musculus; experiment: Inhibition of c-KIT D816E mutant in mouse BAF3(transformed) cells assessed as growth inhibition after 72 hrs by CCK8 assay
GISTT1 [15] = type: functional, Homo sapiens; conditions: Mus musculus, GISTT1, po, 672 h; read-out: TGI
Mus musculus [16] = species: Mus musculus; experiment: Inhibition of c-KIT D820G mutant in mouse BAF3(transformed) cells assessed as growth inhibition after 72 hrs by CCK8 assay
[17] = system: Mast/stem cell growth factor receptor Kit (Homo sapiens), P10721 [Y823D]; conditions: Mus musculus
Sequence of Mast/stem cell growth factor receptor Kit (Homo sapiens), P10721 [Y823D] (P10721 whole entry Y823D): as the sequence (P10721 whole entry T670I) above, with I670T, Y823D counted along it
Description: Inhibition of c-KIT Y823D mutant in mouse BAF3(transformed) cells assessed as growth inhibition after 72 hrs by CCK8 assay

[18] = system: Mast/stem cell growth factor receptor Kit (Homo sapiens), P10721 [UNDEFINED MUTATION]; conditions: GISTT1
Sequence of Mast/stem cell growth factor receptor Kit (Homo sapiens), P10721 [UNDEFINED MUTATION] (P10721 whole entry, looked up, stated change not applied): as the sequence (P10721 whole entry T670I) above, with I670T counted along it
Description: Inhibition of c-KIT 560 to 578 deletion mutant in human GISTT1 cells assessed as growth inhibition after 72 hrs by CCK8 assay

Mus musculus [19] = species: Mus musculus; experiment: Inhibition of c-KIT S709F mutant in mouse BAF3(transformed) cells assessed as growth inhibition after 72 hrs by CCK8 assay
[20] = system: Mast/stem cell growth factor receptor Kit (Homo sapiens), P10721 [V559A]; conditions: Mus musculus
Sequence of Mast/stem cell growth factor receptor Kit (Homo sapiens), P10721 [V559A] (P10721 whole entry V559A): as the sequence (P10721 whole entry T670I) above, with V559A, I670T counted along it
Description: Inhibition of c-KIT V559A mutant in mouse BAF3(transformed) cells assessed as growth inhibition after 72 hrs by CCK8 assay

Mus musculus [21] = species: Mus musculus; experiment: Inhibition of c-KIT T670I/V559D double mutant in mouse BAF3(transformed) cells assessed as growth inhibition after 72 hrs by CCK8 assay
[22] = system: Mast/stem cell growth factor receptor Kit (Homo sapiens), P10721 [D820Y]; conditions: Mus musculus
Sequence of Mast/stem cell growth factor receptor Kit (Homo sapiens), P10721 [D820Y] (P10721 whole entry D820Y): as the sequence (P10721 whole entry T670I) above, with I670T, D820Y counted along it
Description: Inhibition of c-KIT D820Y mutant in mouse BAF3(transformed) cells assessed as growth inhibition after 72 hrs by CCK8 assay

Mus musculus [23] = species: Mus musculus; experiment: Inhibition of c-KIT T670E mutant in mouse BAF3(transformed) cells assessed as growth inhibition after 72 hrs by CCK8 assay
GISTT1 [24] = type: functional, Homo sapiens
[25] = system: Mast/stem cell growth factor receptor Kit (Homo sapiens), P10721 [V559G]; conditions: Mus musculus
Sequence of Mast/stem cell growth factor receptor Kit (Homo sapiens), P10721 [V559G] (P10721 whole entry V559G): as the sequence (P10721 whole entry T670I) above, with V559G, I670T counted along it
Description: Inhibition of c-KIT V559G mutant in mouse BAF3(transformed) cells assessed as growth inhibition after 72 hrs by CCK8 assay

[26] = Growth inhibition of human GIST48B cells after 72 hrs by CCK8 assay; type: functional

| SMILES | GI50 [1] | GI50 [3] | GI50 at 72 h [2] | other results |
| --- | --- | --- | --- | --- |
| COc1cc2nccc(Oc3ccc(NC(=O)Cc4ccc(Cl)c(C(F)(F)F)c4)cc3C(F)(F)F)c2cc1OC | 2840 nM | 3000 nM | 2920 nM |  |
| COc1cc2nccc(Oc3ccc(C(=O)NCc4cccc(C(F)(F)F)c4)cc3)c2cc1OC | 4610 nM | 2350 nM | 10000 nM |  |
| COc1cc2nccc(Oc3ccc(NC(=O)Cc4ccncc4)cc3)c2cc1OC | 6990 nM | 4710 nM | 5130 nM |  |
| COc1cc2nccc(Oc3ccc(C(=O)NCc4ccc(C(F)(F)F)cc4)cc3)c2cc1OC | 668 nM | 2900 nM | 6180 nM |  |
| COc1cc2nccc(Oc3ccc(NC(=O)C4(c5ccccc5)CC4)cc3)c2cc1OC | > 10000 nM | > 10000 nM | > 10000 nM |  |
| Cc1ccc(NC(=O)c2ccc(CN(CCN(C)C)C(=O)c3ccccn3)cc2)cc1Nc1nccc(-c2cccnc2)n1 |  |  |  | inhibition [4]: Active; inhibition [5]: Active; Activity (GISTT1 [6]): Active; inhibition [7]: Active; inhibition [8]: Active; inhibition [9]: Active; inhibition [10]: Active; inhibition [11]: Active |
| COc1cc2nccc(Oc3ccc(NC(=O)Cc4ccccc4C(F)(F)F)cc3)c2cc1OC | 309 nM | 424 nM | 6700 nM |  |
| COc1cc2nccc(Oc3ccc(NC(=O)Cc4ccc(Cl)c(C(F)(F)F)c4)cc3C#N)c2cc1OC | 210 nM | 989 nM | 9970 nM |  |
| COc1cc2nccc(Oc3ccc(NC(=O)Cc4ccccc4)cc3)c2cc1OC | > 10000 nM | > 10000 nM | > 10000 nM |  |
| COc1cc2nccc(Oc3ccc(NC(=O)CC4CCCCC4)cc3)c2cc1OC | 362 nM | 635 nM | 2470 nM |  |
| COc1cc2nccc(Oc3ccc(NC(=O)Cc4ccc(Cl)c(C(F)(F)F)c4)cc3C)c2cc1OC | 9 nM | 105 nM | 7050 nM |  |
| COc1cccc(CC(=O)Nc2ccc(Oc3ccnc4cc(OC)c(OC)cc34)cc2)c1 | 339 nM | 293 nM | 2780 nM |  |
| COc1cc2nccc(Oc3ccc(NC(=O)Cc4c(F)cccc4F)cc3)c2cc1OC | 1700 nM | 2780 nM | 1930 nM |  |
| COc1cc2nccc(Nc3ccc(NC(=O)Cc4ccc(Cl)c(C(F)(F)F)c4)cc3)c2cc1OC | 400 nM | 742 nM | 2210 nM |  |
| COc1cc2nccc(Oc3ccc(NC(=O)Cc4ccc5ccccc5c4)cc3)c2cc1OC | 34 nM | 112 nM | 6230 nM |  |
| COc1cc2nccc(Oc3ccc(NC(=O)Cc4ccc(Cl)c(C(F)(F)F)c4)cc3F)c2cc1OC | 21 nM | 116 nM | 1990 nM |  |
| COc1cc2nccc(Oc3ccc(NC(=O)Cc4ccc5c(c4)OCO5)cc3)c2cc1OC | 167 nM | 110 nM | 3100 nM |  |
| COc1cc2nccc(N(C)c3ccc(NC(=O)Cc4ccc(Cl)c(C(F)(F)F)c4)cc3)c2cc1OC | 8460 nM | 4280 nM | 2670 nM |  |
| COc1cc2nccc(Oc3ccc(NC(=O)Cc4ccc(Cl)c(C(F)(F)F)c4)c(Cl)c3)c2cc1OC | 70 nM | 81 nM | 8220 nM |  |
| COc1ccc(CC(=O)Nc2ccc(Oc3ccnc4cc(OC)c(OC)cc34)cc2)cc1OC | 179 nM | 319 nM | 4130 nM |  |
| Cc1ccc(NC(=O)c2ccc(CN3CCN(C)CC3)cc2)cc1Nc1nccc(-c2cccnc2)n1 [IMATINIB] |  | 350 nM | > 10000 nM | GI50 (Mus musculus [12]): 608 nM; GI50 [13]: 48 nM; GI50 (Mus musculus [14]): 174 nM; Activity (GISTT1 [6]): Active; inhibition in vivo at 100 mg/kg/day (GISTT1 [15]): 66.4%; GI50 (Mus musculus [16]): 337 nM; GI50 [17]: 5870 nM; GI50 [18]: 15 nM; GI50 (Mus musculus [19]): 115 nM; GI50 [20]: 905 nM; GI50 (Mus musculus [21]): > 10000 nM; GI50 [22]: 435 nM; GI50 (Mus musculus [23]): 4080 nM; Activity (GISTT1 [24]): 1.54 g; GI50 [25]: 8 nM; GI50 [26]: > 10000 nM |
| COc1cc2nccc(Oc3ccc(NC(=O)Cc4ccc(F)c(F)c4)cc3)c2cc1OC | 309 nM | 312 nM | 670 nM |  |
| COc1cc2nccc(Oc3ccc(NC(=O)CN4CCN(C)CC4)cc3)c2cc1OC | 8520 nM | 7330 nM | 8700 nM |  |
| COc1cc2nccc(Oc3ccc(NC(=O)Cc4cccc(F)c4)cc3)c2cc1OC | 342 nM | 923 nM | 1000 nM |  |
| COc1cc2nccc(Oc3ccc(NC(=O)Cc4ccc(Cl)c(Cl)c4)cc3)c2cc1OC | 37 nM | 342 nM | 2030 nM |  |
| COc1cc2nccc(Sc3ccc(NC(=O)Cc4ccc(Cl)c(C(F)(F)F)c4)cc3)c2cc1OC | 110 nM | 154 nM | 3090 nM |  |

Further compounds by falling GI50 [3], results first:

| GI50 [1] | GI50 [3] | SMILES | GI50 at 72 h [2] | other results |
| --- | --- | --- | --- | --- |
| 56 nM | 78 nM | COc1cc2nccc(Oc3ccc(NC(=O)Cc4ccc(Cl)c(C(F)(F)F)c4)cc3Cl)c2cc1OC | 9450 nM |  |
| 75 nM | 61 nM | COc1cc2nccc(Oc3ccc(NC(=O)Cc4ccc(Cl)c(C(F)(F)F)c4)c(C)c3)c2cc1OC | 4860 nM |  |
|  | 57 nM | CCC(=O)NCC1CCN(c2ccc(NC(=O)Nc3cccc(Oc4ccnc5cc(OC)c(OC)cc45)c3)cc2C(F)(F)F)CC1 | > 10000 nM |  |
| 18 nM | 49 nM | COc1cc2nccc(Oc3ccc(NC(=O)Cc4ccc(Cl)c(C(F)(F)F)c4)c(F)c3)c2cc1OC | 3210 nM |  |
| 285 nM | 40 nM | COc1cc2nccc(Oc3ccc(NC(=O)Cc4ccc(F)cc4F)cc3)c2cc1OC | 704 nM |  |
| 1560 nM | 34 nM | COc1cc2nccc(Oc3ccc(NC(=O)Cc4ccc(Cl)c(C(F)(F)F)c4)cc3OC)c2cc1OC | 8480 nM |  |
| 15 nM | 27 nM | COc1cc2nccc(Oc3ccc(NC(=O)Cc4ccc(C)c(C)c4)cc3)c2cc1OC | 6420 nM |  |
| 13 nM | 24 nM | COc1cc2nccc(Oc3ccc(NC(=O)Cc4ccc(F)c(C(F)(F)F)c4)cc3)c2cc1OC | 1030 nM |  |
| 11 nM | 22 nM | COc1cc2nccc(Oc3ccc(NC(=O)Cc4ccc(C(F)(F)F)cc4)cc3)c2cc1OC | 2160 nM |  |
| 1 nM | 20 nM | COc1cc2nccc(Oc3ccc(NC(=O)Cc4cccc(C(F)(F)F)c4)cc3)c2cc1OC | 1890 nM |  |
| 14 nM | 17 nM | COc1cc2nccc(Oc3ccc(NC(=O)Cc4ccc(C)c(C(F)(F)F)c4)cc3)c2cc1OC | 7260 nM |  |
